The subject of assay [1] is myoblasts. The experiment in a line: Differentiation of myoblasts and LADD staining (muscle fiber formation experiment). Type of assay: cell-based. The following applies: mouse myoblasts, LADD staining, compared to vehicle, FIG. 1. The source says: Muscle growth is due to the formation of muscle fibers according to the binding between individual myoblasts. Therefore, the improvement of muscle growth can be estimated through the degree of muscle fiber formation in the environment that induced the binding of myoblasts. Accordingly, myoblasts were isolated from the muscle tissue of a subject and cultured, and whether muscle fibers were formed using the isolated myoblasts was observed.
The formation of muscle fibers can be evaluated by measuring the number of myoblasts that form muscle fibers and the thickness of the formed muscle fibers. To this end, a high-magnification optical microscope was used to identify the nucleus in the muscle fiber through muscle fiber staining. The thickness of the muscle fiber was also measured.
The muscle tissue was minced with a scalpel for 5 minutes. The minced muscle solution was incubated at 37° C. for 60 minutes and then centrifuged at 1500 rpm for 5 minutes. The obtained cells were suspended in Ham's F-10 medium containing 20% heat-inactivated horse serum and 50 units/ml of penicillin in the presence of basic FGF (2.5 ng/ml), and then plated on a cell culture dish for 1 hour without gelatin coating. After 1 hour, the suspended cells were transferred to a secondary cell culture dish without gelatin coating and cultured for 1 hour. […]

Assay [2] concerns muscle mass of mice. The experiment in a line: Muscle collection and weighing after oral gavage of cFP. Conditions: male C57BL/6J mice, oral gavage every 24 hours, compared to the control group, FIG. 3. Type of assay: in vivo, mouse. Here is the method: According to an embodiment of the present invention, the increase in muscle weight and bone mass by oral administration of cyclo-L-phenylalanyl-L-proline (cFP) was measured. Muscle weight was measured by separating the muscles of the mouse according to anatomical muscle classification. In addition, trabecular bone analysis on the femur of the mouse was performed using high-resolution micro-CT (SMX-90CT system). Based on the growth plate of the femur, the lower part of the 1 mm was the starting point of the analysis, and the analysis was conducted from the starting point to 1.5 mm below the bone. Each indicator means as follows. bone volume/total bone volume (BV/TV, %), bone surface/trabecular bone volume (BS/BV, 1/mm), trabecular thickness (Tb. Th, mm), trabecular number (Tb.N, 1/mm), trabecular separation (Tb. Sp, mm).
Animal studies were conducted in accordance with the guidelines for animal research. All experimental procedures were approved by the Animal Care and Use Committee of Seoul National University Animal Hospital. Male C57BL/6J mice at 4 or 6 weeks of age were purchased from Orient Bio Inc. (Seongnam, Korea) and housed in a specific pathogen-free (SPF) animal facility with controlled temperature (22° C.), humidity (55%), and a 12-hour light-dark cycle. All animals were provided with a free feeding and drinking system. […]

The test system of assay [3] is trabecular bone of mouse femur. The assay can be described thus: Micro-CT analysis of trabecular bone of femur after free drinking of cFP. Type of assay: in vivo. Conditions: cFP in drinking water (free drinking), FIG. 4.

We go through one compound from patent US20240424051A1, “COMPOSITION FOR TREATING […] OS[…] MECHANISM PROMOTING FORMATION OF MUSCLE FIBERS OR INHIBITING OSTEOCLASTOGENESIS, […]-L-PHENYLALANYL-L-PROLINE DIPEPTIDES” (CELLBION CO., LTD, priority 2021, published 2024).

Each structure is given as a SMILES string.

As for `O=C1NC(Cc2ccccc2)C(=O)N2CCCC12` [cFP, cyclo-L-phenylalanyl-L-proline], the “fusion of myoblasts (muscle fiber formation; diameter of myotube and number of nuclei of myotube)” value in assay [1] was “promoted the fusion of myoblasts”. Further, in assay [2], the “muscle mass of the mice” value was “increased”. Also, in assay [3], the “BV/TV (bone volume/total bone volume)” value is listed as “significantly high”, the “Tb. N (trabecular number)” value is listed as “significantly high” and the “Tb. Th (trabecular thickness)” value is “significantly high”.
